Square brackets hold non-standard residues; d marks the D form. Peptide text beside a SMILES is read from it. * marks the point of attachment. Sta = CC(C)C[C@H](N)[C@@H](O)CC(=O)O; Isovaleryl = CC(C)CC(=O)*
Experiments:
HIV-1 = conditions: single dose; cited from earlier work
HIV = conditions: cited from earlier work
HIV-1 protease [1] = target: T1, HIV-1 protease (Human immunodeficiency virus type 1 group M subtype B, UniProt P04585); experiment: biochemical; conditions: for IC50: HIV-1 Protease IC50; for inhibition at 0.098 µM: read-out: HIV-1 Protease % Inhib, dose 0.098 uM; for inhibition at 0.78 µM: read-out: HIV-1 Protease % Inhib, dose 0.780 uM; for inhibition at 1.56 µM: read-out: HIV-1 Protease % Inhib, dose 1.560 uM; for inhibition at 12.5 µM: read-out: HIV-1 Protease % Inhib, dose 12.500 uM; for inhibition at 25 µM: read-out: HIV-1 Protease % Inhib, dose 25.000 uM; for inhibition at 50 µM: read-out: HIV-1 Protease % Inhib, dose 50.000 uM; for inhibition at 100 µM: read-out: HIV-1 Protease % Inhib, dose 100.000 uM; for inhibition at 0.123 µM: read-out: HIV-1 Protease % Inhib, dose 0.123 uM; for inhibition at 0.37 µM: read-out: HIV-1 Protease % Inhib, dose 0.370 uM; for inhibition at 1.1 µM: read-out: HIV-1 Protease % Inhib, dose 1.100 uM; for inhibition at 3.3 µM: read-out: HIV-1 Protease % Inhib, dose 3.300 uM; for inhibition at 10 µM: read-out: HIV-1 Protease % Inhib, dose 10.000 uM; for inhibition at 30 µM: read-out: HIV-1 Protease % Inhib, dose 30.000 uM
Procedure, shortened: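 Biotinylated, FITC-labeled peptide substrate (20 μl of 0.2 μM) incubated with HIV-1 protease (10 μl of 0.1 μM) and compound in 0.1 M sodium acetate pH 5.5, 1.0 M NaCl, 0.05% NP-40, 1 h, room temperature, dark. Streptavidin beads then capture uncleaved substrate; filtered labeled product read by fluorescence, giving percent inhibition.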

[2] = tested on: p55 Processing in vVk-1 infected CV-1 Cells; experiment: CV-1 Cell Assay: inhibition of p55 processing in vVK-1 infected CV-1 cells (p24 levels); type: cell-based; conditions: Cercopithecidae, CV-1, read-out: CV-1 Cell Assay % Inhib
Protocol: Inhibition of p55 Processing in vVk-1 infected CV-1 Cells. CV-1 cells are seeded at 2×10^5 cells per well in 24-well Costar dishes and infected 4 to 6 hours later with vVK-1 at 5 plaque-forming units (PFU) per cell. Each compound is dissolved in Dulbecco's Modified Eagles medium (DMEM) containing 2.5% fetal bovine serum and is added to duplicate wells at the indicated final concentration 2 hours after virus addition. After 24 hours, the culture medium is removed and the monolayer washed with 1 mL of phosphate buffered saline (PBS), and the cells lysed by the addition of 0.1 mL of loading buffer (62.5 mM Tris (hydroxymethyl) aminomethane (Tris), pH 6.8, 2.3% sodium dodecyl sulfate (SDS), 5% β-mercaptoethanol, and 10% glycerol). The cell lysates are collected individually, placed in boiling water for 3 minutes, and then 0.025 mL of each sample is subjected to electrophoresis on 12% SDS-polyacrylamide gels. The proteins are electroblotted onto nitrocellulose and analyzed by protein immunoblotting. The primary antibodies are sheep antibody to p24 (International Enzyme, Inc., Fallbrook, Calif.) and the secondary antibody is alkaline-phosphatase-conjugated rabbit antibody to sheep immunoglobulin G (Kirkegaard & Perry Laboratories, Gaithersburg, Md.). The levels of immunoreactive proteins are quantified by densitometry (Bio-Rad, Model 260) with the accompanying 1-D Analyst Software. Inhibition refers to the mean percent decrease in p24 levels determined from the duplicate drug-treated samples compared to the nondrug-treated controls. […] Val-Ile-Amp (also known as N-[1-(cyclohexylmethyl)-2,3-dihydroxy-5-methyl-4-[[[2-methyl-1-[[(2-pyridinylmethyl)amino]carbonyl]butyl]-amino]carbonyl]hexyl]-α-[[(1-naphthalenyloxy)acetyl]amino]-, [1S-[1R*(R*),2S*,3S*,4S*(1R*,2R*)]]-1H-imidazole-4-propanamide) (which was disclosed in International Publication Number WO 87/05302, published 11 Sep. 1987) was also determined in each experiment.

HIV-1IIIB = experiment: inhibition of retroviral replication in HIV-1IIIB infected human T-cell lines (MT4 and H9); type: cell-based; conditions: e.g.
Protocol: Several compounds of the present invention, such as N-[3-[cyclopropyl(5,6,7,8,9,10-hexahydro-4-hydroxy-2-oxo-2H-cycloocta[b]pyran-3-yl)methyl]phenyl]-4-fluorobenzenesulfonamide and 4-cyano-N-[3-[cyclopropyl(5,6,7,8,9,10-hexahydro-4-hydroxy-2-oxo-2H-cycloocta[b]pyran-3-yl)methyl]phenyl]-benzenesulfonamide were tested in known human cell lines, such as human T-cell lines, e.g., MT4 and H9, which were infected with HIV-1IIIB, and certain of these compounds were further tested in peripheral blood mononuclear cells (PBMC), which were infected with HIV-1JRCSF (a clinical isolate).

HIV-1 protease [3] = target: T1, HIV-1 protease; experiment: biochemical; conditions: read-out: HIV-1 FITC KI
Procedure, shortened: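 Ki from two-fold serial inhibitor dilutions (24–48 concentrations) with 40 nM HIV-1 protease stock and 200 μM substrate stock, 90 min at room temperature; stopped with avidin beads. Reference inhibitor run in parallel; Ki by nonlinear least-squares fit.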

HIV protease = conditions: cited from earlier work

## O=c1cc(O)c2ccccc2o1 [4-hydroxy-coumarin]
HIV-1
  effect on HIV-1 replication and viral transmission: inhibitory effect

## Cc1cn([C@H]2C[C@H](N=[N+]=[N-])[C@@H](CO)O2)c(=O)[nH]c1=O [AZT, 3'-azido-3'-deoxy-thymidine]
HIV; humans
  clinical effect in HIV infection/AIDS: decrease the mortality and frequency of opportunistic infections associated with AIDS

## CCCC(c1ccccc1)c1c(O)c2ccccc2oc1=O (centres unmarked) [Example 10, 4-Hydroxy-3-(1-phenylbutyl)-coumarin]
HIV-1 protease [1]
  IC50: 1710 nM
  inhibition at 0.098 µM: < 10%
  inhibition at 0.78 µM: 33.2%
  inhibition at 1.56 µM: 53.6%
  inhibition at 12.5 µM: 91.5%
  inhibition at 25 µM: 88%
  inhibition at 50 µM: 102%
  inhibition at 100 µM: 109%
HIV-1 protease [1]; read-out: HIV-1 Protease % Inhib, dose 0.196 uM
  inhibition at 0.196 µM: < 10%
[2]
  inhibition at 100 µM: 0%
  inhibition at 300 µM: 57%

## CCCCC(c1ccccc1)c1c(O)c2ccccc2oc1=O (centres unmarked) [Example 11, 4-Hydroxy-3-(1-phenylpentyl)-coumarin]
HIV-1 protease [1]
  IC50: 1890 nM
  inhibition at 0.098 µM: < 10%
  inhibition at 0.78 µM: 27.1%
  inhibition at 1.56 µM: 58.1%
  inhibition at 12.5 µM: 82%
  inhibition at 25 µM: 95.8%
  inhibition at 50 µM: 90.7%
  inhibition at 100 µM: 105%
HIV-1 protease [1]; read-out: HIV-1 Protease % Inhib, dose 0.195 uM
  inhibition at 0.195 µM: < 10%
HIV-1 protease [1]; read-out: HIV-1 Protease % Inhib, dose 0.390 uM
  inhibition at 0.39 µM: 19.2%
HIV-1 protease [1]; read-out: HIV-1 Protease % Inhib, dose 3.130 uM
  inhibition at 3.13 µM: 63.1%
HIV-1 protease [1]; read-out: HIV-1 Protease % Inhib, dose 6.250 uM
  inhibition at 6.25 µM: 70.4%
HIV-1 protease [1]; read-out: HIV-1 Protease % Inhib, dose 200.000 uM
  inhibition at 200 µM: 107%
[2]
  inhibition at 100 µM: 64%
  inhibition at 300 µM: 78%

## O=c1oc2c(c(O)c1C(c1cccc(NS(=O)(=O)c3ccc(F)cc3)c1)C1CC1)CCCCCC2 (centres unmarked) [Example 268, N-[3-[Cyclopropyl(5,6,7,8,9,10-hexahydro-4-hydroxy-2-oxo-2H-cycloocta[b]pyran-3-yl)methyl]phenyl]-4-fluoro-benzenesulfonamide]
HIV-1 protease [1]
  inhibition at 0.123 µM: 71.2%
  inhibition at 0.37 µM: 88%
  inhibition at 1.1 µM: 96.2%
  inhibition at 3.3 µM: 97.6%
  inhibition at 10 µM: 101%
  inhibition at 30 µM: 101%
HIV-1IIIB
  inhibition of retroviral replication: found to inhibit retrovital replication

## CC(C)CC(c1cccc(NS(=O)(=O)c2cn(C)cn2)c1)c1c(O)c2c(oc1=O)CCCCCC2 (centres unmarked) [Example 427, 1H-Imidazole-4-sulfonamide, N-[3-[1-(5,6,7,8,9,10-hexahydro-4-hydroxy-2-oxo-2H-cycloocta[b]pyran-3-yl)-3-methylbutyl]phenyl]-1-methyl-]
HIV-1 protease [1]
  inhibition at 0.123 µM: 94.2%
  inhibition at 0.37 µM: 92.8%
  inhibition at 1.1 µM: 91.2%
  inhibition at 3.3 µM: 90%
  inhibition at 10 µM: 89.6%
  inhibition at 30 µM: 81.9%
HIV-1 protease [3]
  Ki: 0.65 nM

## CCCC(c1cccc(NS(=O)(=O)c2cn(C)cn2)c1)c1c(O)c2c(oc1=O)CCCCCC2 (centres unmarked) [Example 431, 1H-imidazole-4-sulfonamide, N-[3-[1-(5,6,7,8,9,10-hexahydro-4-hydroxy-2-oxo-2H-cycloocta[b]pyran-3-yl)butyl]phenyl]-1-methyl-]
HIV-1 protease [1]
  inhibition at 0.123 µM: 109%
  inhibition at 0.37 µM: 109%
  inhibition at 1.1 µM: 109%
  inhibition at 3.3 µM: 112%
  inhibition at 10 µM: 105%
  inhibition at 30 µM: 106%
HIV-1 protease [3]
  Ki: 0.89 nM

## CCCC(c1cccc(NS(=O)(=O)c2cccc3cccnc23)c1)c1c(O)c2c(oc1=O)CCCCCC2 (centres unmarked) [Example 432, 8-Quinolinesulfonamide, N-[3-[1-(5,6,7,8,9,10-hexahydro4-hydroxy-2-oxo-2H-cycloocta[b]pyran-3-yl)butyl]phenyl]-]
HIV-1 protease [1]
  inhibition at 0.123 µM: 101%
  inhibition at 0.37 µM: 104%
  inhibition at 1.1 µM: 111%
  inhibition at 3.3 µM: 109%
  inhibition at 10 µM: 107%
  inhibition at 30 µM: 98%
HIV-1 protease [3]
  Ki: 1.65 nM

## CCCC(c1cccc(NS(=O)(=O)c2cccnc2)c1)c1c(O)c2c(oc1=O)CCCCCC2 (centres unmarked) [Example 433, 3-Pyridinesulfonamide, N-[3-[1-(5,6,7,8,9,10-hexahydro-4-hydroxy-2-oxo-2H-cycloocta[b]pyran-3-yl)butyl]phenyl]-]
HIV-1 protease [1]
  inhibition at 0.123 µM: 103%
  inhibition at 0.37 µM: 109%
  inhibition at 1.1 µM: 104%
  inhibition at 3.3 µM: 104%
  inhibition at 10 µM: 109%
  inhibition at 30 µM: 108%
HIV-1 protease [3]
  Ki: 2.24 nM

## O=c1oc2c(c(O)c1C1(c3ccccc3)CCC1)CCCCCC2 [Example 483, 3-(Phenylcyclobutyl)-5,6,7,8,9,10-hexahydro-4-hydroxy-2H-cycloocta[b]pyran-2-one]
HIV-1 protease [1]
  inhibition at 0.37 µM: 44.8%
  inhibition at 1.1 µM: 73.2%
  inhibition at 3.3 µM: 85.2%
  inhibition at 10 µM: 69.5%
  inhibition at 30 µM: 76.7%
HIV-1 protease [3]
  Ki: 33 nM

## Nc1cc(NS(=O)(=O)c2ccccc2)cc(C(c2c(O)c3c(oc2=O)CCCCCC3)C2CC2)c1 (centres unmarked) [Example 486]
HIV-1 protease [1]
  inhibition at 0.37 µM: 40%
  inhibition at 1.1 µM: 74%
  inhibition at 3.3 µM: 97.5%
  inhibition at 10 µM: 126%
  inhibition at 30 µM: 109%
HIV-1 protease [3]
  Ki: 55 nM

## CC(C)CC(=O)N[C@H](C(=O)N[C@H](C(=O)N[C@@H](CC(C)C)[C@@H](O)CC(=O)N[C@@H](C)C(=O)N[C@@H](CC(C)C)[C@@H](O)CC(=O)O)C(C)C)C(C)C [Pepstatin A] (Isovaleryl-VV[Sta]A[Sta]-OH)
HIV protease
  HIV protease inhibition: inhibitor of HIV-I protease

## Nc1ccn([C@H]2CC[C@@H](CO)O2)c(=O)n1 [ddC]
HIV; humans
  limiting toxicity: peripheral neuropathy which is reversible at low doses

## O=c1[nH]cnc2c1ncn2[C@H]1CC[C@@H](CO)O1 [ddI]
HIV; human, in vivo
  effect on liver: stimulate hepatic glycolysis leading to irreversible liver damage
HIV; humans
  limiting toxicity: peripheral neuropathy and pancreatitis

## O=c1ccc2ccc(O)cc2o1 [umbelliferone]
HIV-1
  effect on HIV-1 replication and viral transmission: inhibitory effect

## CC(=O)CC(c1ccccc1)c1c(O)c2ccccc2oc1=O (stereo not drawn) [warfarin, 3-α-phenyl-β-acetylethyl-4-hydroxycoumarin]
HIV protease
  HIV protease inhibition: displayed HIV protease inhibition
HIV-1
  effect on HIV-1 replication and viral transmission: inhibitory effect

## N-[3-[Cyclopropyl(5,6,7,8,9,10-hexahydro-4-hydroxy-2-oxo-2H-cycloocta[b]pyran-3-yl)-methyl]phenyl]-(3-N-ethylbenzenesulfonyl)benzenesulfonamide [Example 414]
HIV-1 protease [1]; dose 0.123 uM
  HIV-1 Protease % Inhib: 62.73%
HIV-1 protease [1]; dose 0.370 uM
  HIV-1 Protease % Inhib: 85.78%
HIV-1 protease [1]; dose 1.100 uM
  HIV-1 Protease % Inhib: 103.16%
HIV-1 protease [1]; dose 3.300 uM
  HIV-1 Protease % Inhib: 105.93%
HIV-1 protease [1]; dose 10.000 uM
  HIV-1 Protease % Inhib: 104.38%
HIV-1 protease [1]; dose 30.000 uM
  HIV-1 Protease % Inhib: 109.61%
HIV-1 protease [3]
  Ki: 3.5 nM
